Consider 21 compounds from patent US8084645B2, “4-phenylamino-benzaldoxime derivatives and uses thereof as mitogen-activated protein kinase kinase (MEK) inhibitors” (Chugai Seiyaku Kabushiki Kaisha, priority 2003, dated 2011).

In brackets after ≈: the same amount, converted by molar mass. Some results are limits rather than exact numbers.

One data set concerns the target MEK (Homo sapiens, UniProt Q02750). The data set is described as follows: Determination of MEK inhibitory activities (Raf-1 kinase cascade assay, MBP phosphorylation, 33P-ATP).
Data set [1] relates to Human colon cancer cell line HT-29. The data set is described as follows: Determination of the activity of inhibiting cell proliferation (Cell Counting Kit-8). Format: cell-based. The following applies: HT-29, 96 h, HT29, 2,000 cells/well, incubated four days, read-out: Cell proliferation inhibitory activity (HT29) IC50. As for the experimental part:
Human colon cancer cell line HT-29, obtained from American Type Culture Collection (VA, USA), and human non-small cell lung cancer cell line QG56, obtained from Immuno-Biological Laboratories Co., Ltd., were plated at 2,000 cells/well in a 96-well culture plate, and incubated for four days after addition of a MEK inhibitor of a given concentration.
On the technique in general: Tetrazolium dyes change colour on reduction, which living cells bring about.

Data set [2] can be described thus: Determination of stability against mouse liver microsomes. Format: in vitro ADME. The conditions noted are these: mouse liver microsomes 1 mg protein/mL, 2 mM NADPH, pH 7.4, 37 C; read-out: Stability against mouse liver microsome NADPH+ T1/2. The protocol:
The enzyme reaction was quenched with three volumes of acetonitrile, and the reaction mixture was centrifuged at 1,500 rpm for ten minutes to provide a supernatant as a sample to be measured. Stability against mouse liver microsomes was measured using HPLC/MS to determine the compounds in the sample.
(In general: Liver microsomes are a subcellular fraction often used to study metabolism.)

The nature of data set [3]: Determination of water solubility (equilibrium stirring method). Format: physicochemical. The conditions noted are these: 50 mM phosphate buffer pH 6.5, room temperature (20 C); for solubility at 2 h: aqueous buffer, thermodynamic from solid, read-out: Water solubility (LySA PH 6.5). As for the experimental part: The vessels were sealed, and the contents were sonicated at room temperature (20° C.) for ten minutes, and then stirred with a stirrer for two hours. After reaching solution equilibrium, the solution was separated with a membrane filter, and the solute concentration was determined using HPLC.

Data set [4] is described as follows: Determination of stability against human liver microsomes. The conditions noted are these: human liver microsomes 1 mg protein/mL, 2 mM NADPH, pH 7.4, 37 C; read-out: Stability against human liver microsome NADPH+ T1/2. Format: in vitro ADME. As for the experimental part: The enzyme reaction was quenched with three volumes of acetonitrile, and the reaction mixture was centrifuged at 1,500 rpm for ten minutes to provide a supernatant as a sample to be measured. Stability against human liver microsomes was measured using HPLC/MS to determine the compounds in the sample.

Chain of MEK (Q02750 whole entry): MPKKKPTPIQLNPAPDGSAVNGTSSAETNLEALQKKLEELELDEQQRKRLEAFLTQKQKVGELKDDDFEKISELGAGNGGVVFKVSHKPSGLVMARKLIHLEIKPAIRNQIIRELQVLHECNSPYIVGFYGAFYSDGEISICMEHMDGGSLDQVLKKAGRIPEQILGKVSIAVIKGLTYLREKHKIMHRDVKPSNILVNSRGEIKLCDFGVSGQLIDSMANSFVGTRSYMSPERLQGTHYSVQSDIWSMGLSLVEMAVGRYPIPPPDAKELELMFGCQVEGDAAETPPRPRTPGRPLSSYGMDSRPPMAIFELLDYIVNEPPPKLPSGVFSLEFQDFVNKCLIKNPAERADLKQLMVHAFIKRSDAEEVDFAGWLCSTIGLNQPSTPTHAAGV
Description for MEK: The radioisotope used was [γ^33P]-ATP (Amersham Biosciences, K.K.).

On to `O=C(NOCCO)c1cc(/C=N/OCCOCCO)c(F)c(F)c1Nc1ccc(I)cc1F` [Compound 46, (E)-3,4-difluoro-2-(2-fluoro-4-iodo-phenylamino)-N-(2-hydroxy-ethoxy)-5-{[2-(2-hydroxy-ethoxy)-ethoxyimino]-methyl}-benzamide], for which the IC50 against MEK amounted to 107 nM; in data set [1], 103 nM.

Turning to `COCCO/N=C/c1cc(C(=O)NOCCO)c(Nc2ccc(I)cc2F)c(F)c1F` [Compound 38, (E)-3,4-difluoro-2-(2-fluoro-4-iodo-phenylamino)-N-(2-hydroxy-ethoxy)-5-[(2-methoxy-ethoxyimino)-methyl]-benzamide], the IC50 against MEK is 395 nM; in data set [1], 476 nM.

For the compound `O=C(NOCCO)c1cc(/C=N/OCc2ccncc2)c(F)c(F)c1Nc1ccc(I)cc1F` [Compound 30, (E)-3,4-difluoro-2-(2-fluoro-4-iodo-phenylamino)-N-(2-hydroxy-ethoxy)-5-[(pyridin-4-ylmethoxyimino)-methyl]-benzamide], the half-life in data set [2] is more than 6 h. Also, in data set [3], the solubility at 2 h was less than 31.3 µM. In addition, the IC50 against MEK worked out at 88 nM; in data set [1], 790 nM.

Take `O=C(NOCCO)c1cc(/C=N\OCCN2CCCC2=O)c(F)c(F)c1Nc1ccc(I)cc1F` [Compound 60, (Z)-3,4-difluoro-2-(2-fluoro-4-iodo-phenylamino)-N-(2-hydroxy-ethoxy)-5-{[2-(2-oxo-pyrrolidin-1-yl)-ethoxyimino]-methyl}-benzamide]: the results for the IC50 (on MEK; in data set [1]) were 78 nM and 20 nM, respectively.

For `CC(C)(CO)CO/N=C/c1cc(C(=O)NOCCO)c(Nc2ccc(I)cc2F)c(F)c1F` [Compound 34, (E)-3,4-difluoro-2-(2-fluoro-4-iodo-phenylamino)-5-[(E)-(3-hydroxy-2,2-dimethyl-propoxyimino)-methyl]-N-(2-hydroxy-ethoxy)-benzamide], the solubility at 2 h in data set [3] was less than 7.8 µM. The IC50 on MEK was 69 nM; in data set [1], 143 nM.

As to `O=C(NOCCO)c1cc(/C=N/OCc2cnc[nH]2)c(F)c(F)c1Nc1ccc(I)cc1F` [Compound 29, (E)-3,4-difluoro-2-(2-fluoro-4-iodo-phenylamino)-N-(2-hydroxy-ethoxy)-5-[(3H-imidazol-4-ylmethoxyimino)-methyl]-benzamide], the IC50 came to 576 nM against MEK and 165 nM in data set [1].

Turning to `O=C(NOCCO)c1cc(/C=N/OCCCCO)c(F)c(F)c1Nc1ccc(I)cc1F` [Compound 36, (E)-3,4-difluoro-2-(2-fluoro-4-iodo-phenylamino)-5-[(4-hydroxy-butoxyimino)-methyl]-N-(2-hydroxy-ethoxy)-benzamide], in data set [3], the solubility at 2 h is less than 7.8 µM. Moreover, the results for the IC50 (against MEK; in data set [1]) were 45 nM and 365 nM, respectively.

Take `CSCCO/N=C/c1cc(C(=O)NOCCO)c(Nc2ccc(I)cc2F)c(F)c1F` [Compound 39, (E)-3,4-difluoro-2-(2-fluoro-4-iodo-phenylamino)-N-(2-hydroxy-ethoxy)-5-[(2-methylsulfanyl-ethoxyimino)-methyl]-benzamide]: the solubility at 2 h in data set [3] was less than 7.8 µM. Also, the figures for the IC50 (on MEK; in data set [1]) were 232 nM and 114 nM, respectively.

Take `CS(=O)(=O)CCO/N=C/c1cc(C(=O)NOCCO)c(Nc2ccc(I)cc2F)c(F)c1F` [Compound 40, (E)-3,4-difluoro-2-(2-fluoro-4-iodo-phenylamino)-N-(2-hydroxy-ethoxy)-5-[(2-methanesulfonyl-ethoxyimino)-methyl]-benzamide]: the half-life in data set [4] was 1.49 h; in data set [2], more than 6 h. For the same compound, the IC50 on MEK came out at 67 nM; in data set [1], 27 nM.

`O=C(NOCCO)c1cc(/C=N\OCCN2CCNC2=O)c(F)c(F)c1Nc1ccc(I)cc1F` [Compound 59, (Z)-3,4-difluoro-2-(2-fluoro-4-iodo-phenylamino)-N-(2-hydroxy-ethoxy)-5-{[2-(2-oxo-imidazolidin-1-yl)-ethoxyimino]-methyl}-benzamide]: the solubility at 2 h in data set [3] was 69 µM (≈ 41.9 µg/mL). Also, the IC50 was 50 nM on MEK and 17 nM in data set [1].

As to `O=C(NOCCO)c1cc(/C=N/OCC2(CO)CC2)c(F)c(F)c1Nc1ccc(I)cc1F` [Compound 35, (E)-3,4-difluoro-2-(2-fluoro-4-iodo-phenylamino)-N-(2-hydroxy-ethoxy)-5-[(1-hydroxymethyl-cyclopropylmethoxyimino)-methyl]-benzamide], the solubility at 2 h in data set [3] is less than 7.8 µM. Besides, the IC50 at MEK was 30.4 nM; in data set [1] it was 203 nM.

In the case of `CO/N=C/c1cc(C(=O)NOCCO)c(Nc2ccc(I)cc2F)c(F)c1F` [Compound 31, (E)-3,4-difluoro-2-(2-fluoro-4-iodo-phenylamino)-N-(2-hydroxy-ethoxy)-5-[methoxyimino-methyl]-benzamide], the IC50 is 335 nM against MEK and 463 nM in data set [1].

As to `CS(=O)(=O)CCO/N=C\c1cc(C(=O)NOCCO)c(Nc2ccc(I)cc2F)c(F)c1F` [Compound 53, (Z)-3,4-Difluoro-2-(2-fluoro-4-iodo-phenylamino)-N-(2-hydroxy-ethoxy)-5-[(2-methanesulfonyl-ethoxyimino)-methyl]-benzamide], the solubility at 2 h in data set [3] was less than 7.8 µM. Further, the figures for the IC50 (on MEK; in data set [1]) were 17 nM and 1.9 nM, respectively.

On to `CC(C)(O)CO/N=C/c1cc(C(=O)NOCCO)c(Nc2ccc(I)cc2F)c(F)c1F` [Compound 12, (E)-3,4-difluoro-2-(2-fluoro-4-iodophenylamino)-N-(2-hydroxy-ethoxy)-5-[(2-hydroxy-2-methyl-propoxyimino)-methyl]-benzamide], for which the half-life in data set [2] is more than 6 h. Moreover, the “Water solubility (LySA PH 6.5)” value in data set [3] came out at 15 µM. Further, the IC50 at MEK was 37 nM; in data set [1] it was less than 19.5 nM.

In the case of `CC(C)(O)CO/N=C\c1cc(C(=O)NOCCO)c(Nc2ccc(I)cc2F)c(F)c1F` [Compound 51, (Z)-3,4-Difluoro-2-(2-fluoro-4-iodo-phenylamino)-N-(2-hydroxy-ethoxy)-5-[(2-hydroxy-2-methyl-propoxyimino)-methyl]-benzamide], the solubility at 2 h in data set [3] is less than 7.8 µM. The IC50 at MEK is 21 nM; in data set [1], 6 nM.

For the compound `CC(C)O/N=C/c1cc(C(=O)NOCCO)c(Nc2ccc(I)cc2F)c(F)c1F` [Compound 32, (E)-3,4-difluoro-2-(2-fluoro-4-iodo-phenylamino)-N-(2-hydroxy-ethoxy)-5-[isopropoxyimino-methyl]-benzamide], the IC50 against MEK worked out at 1250 nM; in data set [1], 84 nM.

Regarding `CC(C)(O)CCO/N=C/c1cc(C(=O)NOCCO)c(Nc2ccc(I)cc2F)c(F)c1F` [Compound 33, (E)-3,4-difluoro-2-(2-fluoro-4-iodo-phenylamino)-N-(2-hydroxy-ethoxy)-5-[(3-hydroxy-3-methyl-butoxyimino)-methyl]-benzamide], in data set [3], the solubility at 2 h is less than 7.8 µM. Also, the IC50 against MEK was found to be 37.5 nM; in data set [1], 275 nM.

For `CNC(=O)CCO/N=C/c1cc(C(=O)NOCCO)c(Nc2ccc(I)cc2F)c(F)c1F` [Compound 14, (E)-3,4-difluoro-2-(2-fluoro-4-iodo-phenylamino)-N-(2-hydroxy-ethoxy)-5-[(2-methylcarbamoyl-ethoxyimino)-methyl]-benzamide], the half-life in data set [2] worked out at 0.767 h. Also, the solubility at 2 h in data set [3] was found to be 14 µM (≈ 8.12 µg/mL). Moreover, the results for the IC50 (against MEK; in data set [1]) were 9.7 nM and 38 nM, respectively.

For the compound `COC(C)(C)CCO/N=C/c1cc(C(=O)NOCCO)c(Nc2ccc(I)cc2F)c(F)c1F` [Compound 37, (E)-3,4-difluoro-2-(2-fluoro-4-iodo-phenylamino)-N-(2-hydroxy-ethoxy)-5-[(3-methoxy-3-methyl-butoxyimino)-methyl]-benzamide], the IC50 is 287 nM against MEK and 600 nM in data set [1].

Regarding `O=C(NOCCO)c1cc(/C=N/OCCN2CCCCC2)c(F)c(F)c1Nc1ccc(I)cc1F` [Compound 17, (E)-3,4-difluoro-2-(2-fluoro-4-iodo-phenylamino)-N-(2-hydroxy-ethoxy)-5-[(2-piperidin-1-yl-ethoxyimino)-methyl]-benzamide], in data set [2], the half-life is more than 6 h. The solubility at 2 h in data set [3] amounted to 462 µM (≈ 280 µg/mL). The IC50 against MEK is 287 nM; in data set [1], 920 nM.

On to `CNCCO/N=C/c1cc(C(=O)NOCCO)c(Nc2ccc(I)cc2F)c(F)c1F` [Compound 23, (E)-3,4-difluoro-2-(2-fluoro-4-iodo-phenylamino)-N-(2-hydroxy-ethoxy)-5-[(2-methylamino-ethoxyimino)-methyl]-benzamide], for which the IC50 came to 85 nM against MEK and 88 nM in data set [1].

A word on the solubility: it is the dissolved amount per volume that the medium holds.
